Source: patent US6716582B2 (priority 2000, dated 2004)

Test system: Luxarray 0.5 luxCDABE reporter clones
Assay: Luxarray 0.5 solid phase perturbation with nalidixic acid
Type: cell-based, E. coli
Details: for bioluminescence response: solid phase, 1 or 5 μg/ml, 2 hrs
Protocol: A solid phase assay system consisting of reporter clones growing in the presence or absence of a perturbation, biological, environmental or chemical was developed. This was accomplished by growing the reporters on a porous membrane (Biodyne B, Nunc) seated on top of solid growth media in a culture dish (OmniTray, Nunc). Luminescence was measured either by a luminometer or by creating an image of the entire culture and quantitating the pixel density. Effects of perturbants can be determined by comparison of luminescence generated by treated and control cultures. Growth on the surface of the membrane allows the reporter assay to be moved between conditions as required. Experimental protocols often involve perturbations that prohibit long term exposure due to cell death or other irreversible effects. The ability to move the entire array to new growth conditions allows one a great variety of experimental schemes such as pulsed or pulse/chase exposures, reversibility, and short term kinetic studies.
Membranes were sterilized with UV illumination for 10 min then placed in contact with prewarmed media in a culture dish. The clones and controls were printed onto an approximately 8×12 cm membrane mimicking the pattern of a 96-well plate (FIG. 3A). Strains were printed to generate 8 repeating sections of the 10 strains and two controls and placed in a Dynex ML3000 luminometer prewarmed to 37° C. Luminescence data was collected for each spot for 40 cycles of 20 min duration (overnight). […] Without exception, the signal strength measured corroborated the data obtained in liquid culture. Additionally, replicates varied minimally, again similar to liquid culture measurements.
Next the system was evaluated for its ability to determine responses to perturbation, in this case, DNA damage caused by nalidixic acid. Parental clone and two nonresponding reporters, osmY, and lacZYA, and three DNA damage responsive reporters, uvrA, recA, dinG, were chosen. […] The membranes were moved to new, pre-warmed plates containing varying amounts of nalidixic acid and light readings collected with an ML3000 luminometer. […] Luminescence was measured with a Dynex ML3000 luminometer every 30 min for 2 hrs. […] The strain containing the parental plasmid, pDEW201, without a promoter driving luxCDABE expression produces very low levels of bioluminescence that are very close to the background measured on a ML3000 luminometer for strains grown in 96-well microplates. […]
The clones of Luxarray 0.5 were used to print arrays as described above at a 4×4 density. […] Spot intensity was determined using ArrayVision™ (Imaging Research, Toronto, Canada).

CCn1cc(C(=O)O)c(=O)c2ccc(C)nc21 [Nalidixic acid, nalidixic acid]
bioluminescence response (SOS regulon reporters uvrA, recA, dinG): increased bioluminescence
reporter expression (five DNA damage-responsive reporters, high density array, 5 μg/ml, 0-8 hr): upregulation of expression
light production (lac promoter fusion and several other promoter fusions, high density array, 5 μg/ml): decreased
bioluminescence response (osmY and lacZYA fusions): unaffected
